According to ChEMBL document CHEMBL1147260, “Heliotropamide, a novel oxopyrrolidine-3-carboxamide from Heliotropium ovalifolium” (J Nat Prod, 2003):
The source made the active and inactive calls.

Columns and labels:
Bacillus subtilis = test: Antibacterial activity against Bacillus subtilis; format: functional, organism-based
[1] = target: Acetylcholinesterase (Homo sapiens) (UniProt P22303); test: Inhibition of acetylcholinesterase
Cladosporium cucumerinum = test: Antifungal activity against Cladosporium cucumerinum; format: functional, organism-based
[2] = Antioxidant activity assessed as DPPH scavenging activity; format: functional
Candida albicans = test: Antifungal activity against Candida albicans; format: functional, organism-based

Measured: Activity

Chain of Acetylcholinesterase (Homo sapiens) (P22303 whole entry): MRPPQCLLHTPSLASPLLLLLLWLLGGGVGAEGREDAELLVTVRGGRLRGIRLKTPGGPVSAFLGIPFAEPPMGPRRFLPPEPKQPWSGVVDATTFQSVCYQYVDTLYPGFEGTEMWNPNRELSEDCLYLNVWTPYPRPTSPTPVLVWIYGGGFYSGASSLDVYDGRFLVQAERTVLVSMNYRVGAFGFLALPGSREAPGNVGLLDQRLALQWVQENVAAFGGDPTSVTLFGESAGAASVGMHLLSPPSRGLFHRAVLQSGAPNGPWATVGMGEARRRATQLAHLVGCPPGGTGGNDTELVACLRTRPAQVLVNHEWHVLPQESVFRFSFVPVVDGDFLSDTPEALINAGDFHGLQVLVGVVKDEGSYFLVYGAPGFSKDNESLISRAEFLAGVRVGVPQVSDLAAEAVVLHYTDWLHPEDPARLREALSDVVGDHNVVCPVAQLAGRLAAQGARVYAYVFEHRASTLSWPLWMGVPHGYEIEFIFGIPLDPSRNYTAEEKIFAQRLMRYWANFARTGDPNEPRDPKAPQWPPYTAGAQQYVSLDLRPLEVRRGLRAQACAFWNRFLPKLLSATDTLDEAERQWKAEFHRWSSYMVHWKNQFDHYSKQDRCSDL

COc1cc(/C=C2\C(=O)N(CCc3ccc(OC(C)=O)cc3)[C@H](c3ccc(OC(C)=O)c(OC)c3)[C@H]2C(=O)NCCc2ccc(OC(C)=O)cc2)ccc1OC(C)=O
inactive: Bacillus subtilis | [1] | Cladosporium cucumerinum | [2] | Candida albicans

COc1cc(/C=C2\C(=O)N(CCc3ccc(O)cc3)[C@H](c3ccc(O)c(OC)c3)[C@H]2C(=O)NCCc2ccc(O)cc2)ccc1O
inactive: Bacillus subtilis | [1] | Cladosporium cucumerinum | [2] | Candida albicans
